In patent US12091425B2 (AMGEN INC., priority 2016, dated 2024):

Target: T1, Mcl-1/Bim interaction, recombinant human Mcl-1 (171-327) (Homo sapiens, UniProt Q07820)
T1 construct: made in house
Assay: Cell free Mcl-1: Bim Affinity Assay (Mcl-1 HTRF)
Assay type: binding
Conditions: TR-FRET, 0.1 nM Mcl-1 (171-327), 0.05 nM biotin-Bim (51-76)
Outline: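 Read-out is time-resolved FRET after overnight incubation, using a biotin-labelled peptide from human Bim (51-76) as the binding partner; IC50 was derived from competition curves.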

T1 sequence (Q07820 171-327): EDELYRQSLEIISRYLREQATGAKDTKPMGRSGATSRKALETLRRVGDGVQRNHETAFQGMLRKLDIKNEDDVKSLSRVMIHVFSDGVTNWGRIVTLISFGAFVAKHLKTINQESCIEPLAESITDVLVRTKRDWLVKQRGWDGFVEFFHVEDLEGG

IC50 [nM] | Molecule
2.3 | CCN1CC/C=C/[C@H](OC)[C@@H]2CC[C@H]2CN2C[C@@]3(CCCc4cc(Cl)ccc43)COc3ccc(cc32)C(=O)NS1(=O)=O [Example 45]
0.221 | CC[C@@H]1CCCC[C@H](OCC(=O)O)[C@@H]2CC[C@H]2CN2C[C@@]3(CCCc4cc(Cl)ccc43)COc3ccc(cc32)C(=O)NS1(=O)=O [Example 994, (((1S,3′R,6′R,7′S,12′R)-6-chloro-12′-ethyl-13′,13′-dioxido-15′-oxo-3,4-dihydro-2H-spiro[naphthalene-1,22′-[20]oxa[13]thia[1,14]diazatetracyclo[14.7.2.0^3,6.0^19,24]pentacosa [16,18,24]trien]-7′-yl)oxy)acetic Acid]
0.951 | COCCOC[C@@H]1CC/C=C/[C@H](O)[C@@H]2CC[C@H]2CN2C[C@@]3(CCCc4cc(Cl)ccc43)COc3ccc(cc32)C(=O)NS1(=O)=O (single isomer, unassigned) [Example 448]
4.04 | CCN1CCCC[C@H](O)[C@@H]2CC[C@H]2CN2C[C@@]3(CCCc4cc(Cl)ccc43)COc3ccc(cc32)C(=O)NS1(=O)=O [Example 86, (1S,3′R,6′R,7′S)-6-chloro-12′-ethyl-7′-hydroxy-3,4-dihydro-2H,15′H-spiro[naphthalene-1,22′-[20]oxa[13]thia[1,12,14]triazatetracyclo[14.7.2.0^3,6.0^19,24]pentacosa[16,18,24]trien]-15′-one 13′,13′-dioxide]
22.2 | O=C1NS(=O)(=O)CCCCCS(=O)(=O)C2CCC2CN2C[C@@]3(CCCc4cc(Cl)ccc43)COc3ccc1cc32 (mixture of isomers) [Example 196]
0.243 | CN(C)C(=O)[C@@H]1CC/C=C/[C@H](O)[C@@H]2CC[C@H]2CN2C[C@@]3(CCCc4cc(Cl)ccc43)COc3ccc(cc32)C(=O)NS1(=O)=O (single isomer, unassigned) [Example 436]

Molecule | IC50 [nM]
N#C[C@@H]1CC/C=C\[C@H](O)[C@@H]2CC[C@H]2CN2C[C@@]3(CCCc4cc(Cl)ccc43)COc3ccc(cc32)C(=O)NS1(=O)=O (single isomer, unassigned) [Example 153] | 1.22

Same assay, conditions: cell free Mcl-1:Bim TR-FRET, recombinant human Mcl-1 (171-327)

IC50 [nM] | Molecule
8.46 | O=C1NS(=O)(=O)CCCCC(O)C(O)C2CCC2CN2CC3(CCCc4cc(Cl)ccc43)COc3ccc1cc32 (single isomer, unassigned) [Example 857, (1S,3′R,6′R,7′R,8′R)-6-chloro-7′,8′-dihydroxy-3,4-dihydro-2H,15′H-spiro[naphthalene-1,22′-[20]oxa[13]thia[1,14]diazatetracyclo[14.7.2.0^3,6.0^19,24]pentacosa [16,18,24]trien]-15′-one 13′,13′-dioxide or (1S,3′R,6′R,7′S,8′S)-6-chloro-7′,8′-dihydroxy-3,4-dihydro-2H,15′H-spiro[naphthalene-1,22′-[20]oxa[13]thia[1,14]diazatetracyclo[14.7.2.0^3,6.0^19,24]pentacosa [16,18,24]trien]-15′-one 13′,13′-dioxide]
4 | O=C1NS(=O)(=O)C/C=C\CCC[C@@H]2CC[C@H]2CN2C[C@@]3(CCCc4cc(Cl)ccc43)COc3ccc1cc32 (single isomer, unassigned) [Example 497]
8.93 | CC(C)[C@@H]1CCCC[C@@H](O)[C@@H]2CC[C@H]2CN2C[C@@]3(CCCc4cc(Cl)ccc43)COc3ccc(cc32)C(=O)NS1(=O)=O (single isomer, unassigned) [Example 754]
2.78 | C[C@@H](O)C[C@H]1CC/C=C/[C@H](O)[C@@H]2CC[C@H]2CN2C[C@@]3(CCCc4cc(Cl)ccc43)COc3ccc(cc32)C(=O)NS1(=O)=O (single isomer, unassigned) [Example 539]
1.78 | C[C@@H]1CCC[C@H](O)[C@@H]2CC[C@H]2CN2C[C@@]3(CCCc4cc(Cl)ccc43)COc3ccc(cc32)C(=O)NS1(=O)=O [Example 761, (1S,3′R,6′R,7′S,11′R)-6-chloro-7′-hydroxy-11′-methyl-3,4-dihydro-2H,14′H-spiro[naphthalene-1,21′-[19]oxa[12]thia[1,13]diazatetracyclo[13.7.2.0^3,6.0^18,23]tetracosa[15,17,23]trien]-14′-one 12′,12′-dioxide]
5.07 | O=C1NS(=O)(=O)CCC[C@]2(O)CCO[C@H](C2)[C@@H]2CC[C@H]2CN2C[C@@]3(CCCc4cc(Cl)ccc43)COc3ccc1cc32 (single isomer, unassigned) [Example 924]
9.87 | O=C1NS(=O)(=O)CCC/C=C/[C@@H]2CC[C@H]2CN2C[C@@]3(CCCc4cc(Cl)ccc43)COc3ccc1cc32 [Example 829, (1S,3′R,6′S, 7′E)-6-chloro-3,4-dihydro-2H,14′H-spiro[naphthalene-1,21′-[19]oxa[12]thia[1,13]diazatetracyclo[13.7.2.0^3,6.0^18,23]tetracosa [7,15,17,23]tetraen]-14′-one 12′,12′-dioxide]

Molecule | IC50 [nM]
O=C1NS(=O)(=O)CC/C=C/[C@H](O)C[C@@H]2CC[C@H]2CN2C[C@@]3(CCCc4cc(Cl)ccc43)COc3ccc1cc32 (single isomer, unassigned) [Example 884, (1S,3′R,6′S,8′R,9′E)-6-chloro-8′-hydroxy-3,4-dihydro-2H,15′H-spiro[naphthalene-1,22′-[20]oxa[13]thia[1,14]diazatetracyclo[14.7.2.0^3,6.0^19,24]pentacosa [9,16,18,24]tetraen]-15′-one 13′,13′-dioxide or (1S,3′R,6′S,8′S,9′E)-6-chloro-8′-hydroxy-3,4-dihydro-2H,15′H-spiro[naphthalene-1,22′-[20]oxa[13]thia[1,14]diazatetracyclo[14.7.2.0^3,6.0^19,24]pentacosa [9,16,18,24]tetraen]-15′-one 13′,13′-dioxide] | 1.29
(1S,3′R,6′S,14′S,15′R)-6-chloro-3,4-dihydro-2H,9′H,17′H-spiro[naphthalene-1,24′-[22]oxa[15]thia[1,10,16]triazapentacyclo[16.7.2.1^10,14.0^3,6.0^21,26]octacosa[18,20,26]triene]-9′,17′-dione 15′-oxide or (1S,3′R,6′S,14′S,15′S)-6-chloro-3,4-dihydro-2H,9′H,17′H-spiro[naphthalene-1,24′-[22]oxa[15]thia[1,10,16]triazapentacyclo[16.7.2.1^10,14.0^3,6.0^21,26]octacosa[18,20,26]triene]-9′,17′-dione 15′-oxide [Example 948] | 10.3
O=C1NS(=O)(=O)[C@H](CCOc2ccc(Br)cc2)CC/C=C/[C@H](O)[C@@H]2CC[C@H]2CN2C[C@@]3(CCCc4cc(Cl)ccc43)COc3ccc1cc32 (single isomer, unassigned) [Example 625] | 38.3
O=C1NS(=O)(=O)/C=C/COC[C@@H](O)[C@@H]2CC[C@H]2CN2C[C@@]3(CCCc4cc(Cl)ccc43)COc3ccc1cc32 (single isomer, unassigned) [Example 917, (3R,6R,7S,11E,22S)-6′-chloro-7-hydroxy-3′,4′-dihydro-2′H,15H-spiro[9,20-dioxa-13-thia-1,14-diazatetracyclo[14.7.2.0^3,6.0^19,24]pentacosa-11,16,18,24-tetraene-22,1′-naphthalen]-15-one 13,13-dioxide or (3R,6R,7R,11E, 22S)-6′-chloro-7-hydroxy-3′,4′-dihydro-2′H,15H-spiro[9,20-dioxa-13-thia-1,14-diazatetracyclo[14.7.2.0^3,6.0^19,24]pentacosa-11,16,18,24-tetraene-22,1′-naphthalen]-15-one 13,13-dioxide] | 4.11
